This note sets out measurements from patent US9593108B2, “Compounds and methods for antiviral treatment” (PTC Therapeutics, Inc., priority 2009, dated 2017).

In data set [1] the test system is HCV replicon RNA (GenBank Accession No. AJ242654). As to the kind of experiment: HCV Replicon Assay (replicon RNA reduction and/or Fluc reporter signal). The settings on record: Hepatitis C virus, 72 h, replicon-containing cells cultured with test compound for up to 3 days. The format is cell-based, Hepatitis C virus. An outline of the steps: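 Bicistronic replicon-containing cells cultured with compound for up to 3 days, with interferon as positive control. Inhibition quantified by replicon RNA reduction and/or Fluc reporter signal; IC50 values generally derived from replicon RNA reduction.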
A general note: Replicon systems follow genome replication, usually without infectious particles.

The structures appear in SMILES notation.

Consider `CC(C)(C)NS(=O)(=O)c1ccc(-c2c(C#N)c3cc(F)cnc3n2-c2cnccn2)nc1` [Cpd 521, N-tert-butyl-6-[3-cyano-5-fluoro-1-(pyrazin-2-yl)-1H-pyrrolo[2,3-b]pyridin-2-yl]pyridine-3-sulfonamide], for which the melting point (usually the temperature of the solid-liquid transition) lay in the range of 245 to 247 °C. Besides, the IC50 (as a rule, the concentration that gives 50% inhibition) in data set [1] was less than 500 nM.

`CC(C)(C)NS(=O)(=O)c1ccc(-c2c(C#N)c3cc(F)cnc3n2-c2ccccn2)nc1` [Cpd 522, N-tert-butyl-6-[3-cyano-5-fluoro-1-(pyridin-2-yl)-1H-pyrrolo[2,3-b]pyridin-2-yl]pyridine-3-sulfonamide] had a melting point of 202.2 to 204.3 °C. This compound also registered an IC50 in data set [1] of less than 500 nM.

As to `CC(C)(C)NS(=O)(=O)c1ccc(-c2c(C(N)=O)c3cc(C(F)(F)F)cnc3n2-c2ccccc2)nc1` [Cpd 523, 2-[5-(tert-butylsulfamoyl)pyridin-2-yl]-1-phenyl-5-(trifluoromethyl)-1H-pyrrolo[2,3-b]pyridine-3-carboxamide], the melting point is 241.8 to 243 °C. Further, the IC50 in data set [1] was less than 500 nM.

In turn, `Cc1cnc2c(c1)c(C#N)c(-c1ccc(S(=O)(=O)NC(C)(C)C)cn1)n2-c1ccccc1` [Cpd 524, N-tert-butyl-6-(3-cyano-5-methyl-1-phenyl-1H-pyrrolo[2,3-b]pyridin-2-yl)pyridine-3-sulfonamide] had a melting point of 228.6 to 229.3 °C. In data set [1], this compound gave an IC50 of 500 to 2000 nM.

Compound `Cc1cnc2c(c1)c(C#N)c(-c1ccc(S(=O)(=O)NC(C)(C)C)cn1)n2-c1ccccn1` [Cpd 525, N-tert-butyl-6-[3-cyano-5-methyl-1-(pyridin-2-yl)-1H-pyrrolo[2,3-b]pyridin-2-yl]pyridine-3-sulfonamide] registered a melting point of 214.2 to 215.4 °C. In data set [1], this compound came in with an IC50 of 500 to 2000 nM.

In turn, `CC(C)(C)NS(=O)(=O)c1ccc(-c2c(C#N)c3cc(C(F)(F)F)cnc3n2-c2cnccn2)nc1` [Cpd 526, N-tert-butyl-6-[3-cyano-1-(pyrazin-2-yl)-5-(trifluoromethyl)-1H-pyrrolo[2,3-b]pyridin-2-yl]pyridine-3-sulfonamide] showed a melting point of 214.2 to 215.4 °C. For the same compound, in data set [1], the half-inhibitory concentration (IC50) was less than 500 nM.

Regarding `CC(C)(C)NS(=O)(=O)c1ccc(-c2c(C(N)=O)c3cc(F)cnc3n2-c2ccccc2)nc1` [Cpd 527, 2-[5-(tert-butylsulfamoyl)pyridin-2-yl]-5-fluoro-1-phenyl-1H-pyrrolo[2,3-b]pyridine-3-carboxamide], the melting point fell in the range of 275.2 to 276.9 °C. For the same compound, the IC50 in data set [1] fell in the range of 500 to 2000 nM.
